What was measured:
Type in all cases: in vivo, Oryzias latipes
[1] = system: fertilized eggs (W) of wild medaka fish; test: Formation of thrombus by 17β-estradiol in fertilized eggs (W) of wild medaka fish; settings: 25° C., 3 days
Experimental: Medaka physiological saline solutions (40 mL for each) containing 17 β-estradiol in an amount of 2 ng/L, 20 ng/L, 200 ng/L, 2 μg/L, 1 mg/L, and 4 mg/L were supplied in culture plates, respectively. Three sets were prepared for each concentration. About 30 fertilized eggs (W) of 12-hours after fertilization which were obtained by mutual mating between wild medaka fish, were placed in the first set of culture plates. About 30 fertilized eggs (A) of 12-hours after fertilization which were obtained by crossing the strain A of the transgenic medaka fish with wild medaka fish, were placed in the second set of culture plates. About 30 fertilized eggs (C) of 12-hours after fertilization which were obtained by crossing the strain C of the transgenic medaka fish with wild medaka fish, were placed in the third set of culture plates. After the culture plates were incubated at 25° C. for 3 days, medaka embryos were checked under dissecting microscope with respect to formation of a thrombus. In almost 100% of the fertilized eggs (W), one or more thrombi were formed at the concentration of 4 mg/L of 17β-estradiol, but were not observed at the concentration of less than 4 mg/L. 1%, 3%, 8%, 49%, 55%, and 100% of the fertilized eggs (A) caused the formation of the thrombi at the concentrations of 2 ng/L, 20 ng/L, 200 ng/L, 2 μg/L, 1 mg/L, and 4 mg/L of 17β-estradiol, respectively. […]

[2] = system: fertilized eggs (A), strain A of the transgenic medaka fish crossed with wild medaka fish; test: Formation of thrombus by 17β-estradiol in fertilized eggs (A) of strain A transgenic medaka fish; settings: for fertilized eggs that caused the formation of the thrombi: fertilized eggs (A), 25° C., 3 days
Experimental: (§1) Medaka physiological saline solutions (40 mL for each) containing 17 β-estradiol in an amount of 2 ng/L, 20 ng/L, 200 ng/L, 2 μg/L, 1 mg/L, and 4 mg/L were supplied in culture plates, respectively. Three sets were prepared for each concentration. About 30 fertilized eggs (W) of 12-hours after fertilization which were obtained by mutual mating between wild medaka fish, were placed in the first set of culture plates. About 30 fertilized eggs (A) of 12-hours after fertilization which were obtained by crossing the strain A of the transgenic medaka fish with wild medaka fish, were placed in the second set of culture plates. About 30 fertilized eggs (C) of 12-hours after fertilization which were obtained by crossing the strain C of the transgenic medaka fish with wild medaka fish, were placed in the third set of culture plates. After the culture plates were incubated at 25° C. for 3 days, medaka embryos were checked under dissecting microscope with respect to formation of a thrombus. In almost 100% of the fertilized eggs (W), one or more thrombi were formed at the concentration of 4 mg/L of 17β-estradiol, but were not observed at the concentration of less than 4 mg/L. 1%, 3%, 8%, 49%, 55%, and 100% of the fertilized eggs (A) caused the formation of the thrombi at the concentrations of 2 ng/L, 20 ng/L, 200 ng/L, 2 μg/L, 1 mg/L, and 4 mg/L of 17β-estradiol, respectively. 19%, 41%, 75%, 73%, 60%, and 100% of the fertilized eggs (C) caused the formation of the thrombi at the same concentrations as mentioned above, respectively.

[3] = system: fertilized eggs (C), strain C of the transgenic medaka fish crossed with wild medaka fish; test: Formation of thrombus by 17β-estradiol in fertilized eggs (C) of strain C transgenic medaka fish; settings: for fertilized eggs that caused the formation of the thrombi: fertilized eggs (C), 25° C., 3 days
Experimental: as §1

## C[C@]12CC[C@@H]3c4ccc(O)cc4CC[C@H]3[C@@H]1CC[C@@H]2O [17β-estradiol]
[1]; 4 mg/L
  fertilized eggs in which one or more thrombi were formed: ~100%
[1]; concentration of less than 4 mg/L
  formation of thrombi: not observed
[2]; fertilized eggs (A) versus wild medaka fish
  estrogen sensitivity relative to that of the wild medaka fish: thousand times
[2]; 2 ng/L
  fertilized eggs that caused the formation of the thrombi: 1%
[2]; 20 ng/L
  fertilized eggs that caused the formation of the thrombi: 3%
[2]; 200 ng/L
  fertilized eggs that caused the formation of the thrombi: 8%
[2]; 2 μg/L
  fertilized eggs that caused the formation of the thrombi: 49%
[2]; 1 mg/L
  fertilized eggs that caused the formation of the thrombi: 55%
[2]; 4 mg/L
  fertilized eggs that caused the formation of the thrombi: 100%
[3]; fertilized eggs (C) versus wild medaka fish
  estrogen sensitivity relative to that of the wild medaka fish: hundred thousand times
[3]; 2 ng/L
  fertilized eggs that caused the formation of the thrombi: 19%
[3]; 20 ng/L
  fertilized eggs that caused the formation of the thrombi: 41%
[3]; 200 ng/L
  fertilized eggs that caused the formation of the thrombi: 75%
[3]; 2 μg/L
  fertilized eggs that caused the formation of the thrombi: 73%
[3]; 1 mg/L
  fertilized eggs that caused the formation of the thrombi: 60%
[3]; 4 mg/L
  fertilized eggs that caused the formation of the thrombi: 100%
